Results: US10131672B2, “Therapeutic or prophylactic agent for biliary diseases” (Toray Industries, Inc., priority 2010, dated 2018)
Read-outs that look alike come from different tables or passages of the source.

Legend:
[1] = system: sphincter of Oddi; conditions: animal experiments, high doses; cited from earlier work
[2] = system: biliary tract; conditions: nalbuphine not statistically significant; butorphanol statistically significant; cited from earlier work
[3] = system: sphincter of Oddi; conditions: literature reports; cited from earlier work
[4] = system: sphincter of Oddi; test: Sphincter of Oddi perfusion pressure after intravenous administration to a dog (literature); format: in vivo
Method: Further, gabexate mesilate reduces the sphincter of Oddi perfusion pressure by 6.9 mmH2O (corresponds to 0.51 mmHg) or 10.6 mmH2O (corresponds to 0.78 mmHg) when it is intravenously administered to a dog at a dose of 1 mg/kg or 3 mg/kg, respectively (Yamasato T. et al., J Smooth Muscle Res., 27, 87 (1991). Since oxapium iodide is usually orally administered at a dose of 30 to 60 mg per adult per day dividedly in 3 times, and 100 mg of gabexate mesilate is usually dissolved in 500 mL of Ringer's solution and the resulting solution is administered by intravenous drip infusion at a rate of not more than 8 mL/minute, the above-described doses are considered to be equivalent to the clinical doses of those drugs.

[5] = system: sphincter of Oddi; conditions: dog, intravenous, cited from earlier work
[6] = system: sphincter of Oddi; test: Rabbit model for contraction of sphincter of Oddi (perfusion pressure in sphincter of Oddi); format: in vivo
Method: The method described in Wei J G et al., World J. Gastroenterol., 6, 102 (2000) was partially modified and used for measurement of a change in the perfusion pressure in sphincter of Oddi. The change in the perfusion pressure reflects the motility of a contractive change of sphincter of Oddi.
Male NZW rabbits (Japan SLC) which had body weights of 2.0 to 2.5 kg upon delivery were fasted from the evening of the day before the experiment. The experiment was carried out under anesthesia with pentobarbital, with artificial ventilation. Each rabbit was immobilized in the supine position and subjected to abdominal incision to expose the periduodenal area and the common bile duct. A small incision was made in the common bile duct, and a cannula was inserted into the common bile duct toward the duodenum side, followed by indwelling its tip in sphincter of Oddi (sphincter ampullae). For biliary excretion, another cannula was inserted into the bile duct toward the gallbladder side and immobilized. From the other end of the cannula whose tip was indwelled in the sphincter of Oddi, physiological saline was continuously injected at a flow rate of 6 mL/hour to allow perfusion in the sphincter of Oddi. By recording the perfusion pressure with a blood pressure monitoring transducer (DX-300, Nihon Kohden Corporation), the contraction reaction of sphincter of Oddi was measured.
To the rabbit, 5% aqueous mannitol solution, which is the vehicle for the Compound 1 solution, was administered via the jugular vein. Further, not less than 30 minutes after the administration of the vehicle, Compound 1 was administered to the same individual at a dose of 0.2 μg/kg via the jugular vein. The administration volume of the vehicle and Compound 1 was 1 mL/kg, and the administration was carried out for 60 seconds.
Thus, in the Compound 1-administered group, the rate of change in the maximum perfusion pressure was lower compared to the vehicle-administered group, and this difference was significant (*p<0.05, paired t-test).

COc1cccc(C2(O)CCCCC2CN(C)C)c1 (stereo not drawn) [tramadol]
contraction of sphincter of Oddi [1]: causes contraction of sphincter of Oddi

Oc1ccc2c(c1)[C@@]13CCCC[C@@]1(O)[C@@H](C2)N(CC1CCC1)CC3 [butorphanol]
increase of the inner pressure of biliary tract [2]: 12%

C=CCN1CC[C@]23c4c5ccc(O)c4O[C@H]2C(=O)CC[C@@]3(O)[C@H]1C5 [naloxone]
action on contraction of sphincter of Oddi [3]: have an action to inhibit contraction of sphincter of Oddi

Oc1ccc2c3c1O[C@H]1[C@@H](O)CC[C@@]4(O)[C@@H](C2)N(CC2CCC2)CC[C@]314 [nalbuphine]
action on contraction of sphincter of Oddi [3]: does not exert any action on contraction of sphincter of Oddi

CCOC(=O)c1ccc(OC(=O)CCCCCNC(=N)N)cc1 [gabexate mesilate]
reduction of the sphincter of Oddi perfusion pressure (converted) ([4]; 1 mg/kg): 0.51 mmHg | reduction of the sphincter of Oddi perfusion pressure (converted) ([4]; 3 mg/kg): 0.78 mmHg | reduction of the sphincter of Oddi perfusion pressure ([5]; 1 mg/kg (Yamasato T. et al. 1991)): 6.9 mmH2O | reduction of the sphincter of Oddi perfusion pressure ([5]; 3 mg/kg (Yamasato T. et al. 1991)): 10.6 mmH2O

C[N+]1(CC2COC(c3ccccc3)(C3CCCCC3)O2)CCCCC1 (stereo not drawn) [Oxapium iodide]
reduction of the sphincter of Oddi perfusion pressure (converted) ([4]; 0.3 mg/kg): 0.74 mmHg | reduction of the sphincter of Oddi perfusion pressure ([5]; 0.3 mg/kg (Tamasawa Y. et al. 1972)): about 10 mmH2O

CN1CC[C@]2(C)C[C@@H](Cc3ccc(O)cc32)C1 [eptazocine]
contraction of sphincter of Oddi [1]: shows an action to cause contraction of sphincter of Oddi

CN(C(=O)/C=C/c1ccoc1)[C@@H]1CC[C@@]2(O)[C@H]3Cc4ccc(O)c5c4[C@@]2(CCN3CC2CC2)[C@H]1O5.Cl [Compound 1, (−)-17-(cyclopropylmethyl)-3,14β-dihydroxy-4,5α-epoxy-6β-[N-methyl-trans-3-(3-furyl)acrylamido]morphinan hydrochloride]
reduction of the actual value of the maximum perfusion pressure ([6]; 0.2 μg/kg intravenous to rabbits, on average): 0.95 mmHg | action on contraction of sphincter of Oddi (conclusion in words) ([6]; 0.2 μg/kg intravenous, rabbit): has an action to inhibit contraction of sphincter of Oddi | rate of change in the maximum perfusion pressure (Oddi muscle contraction (Delta %)) ([6]; 0.2 μg/kg intravenous, 3 minutes after vs 3 minutes before beginning of administration, mean, N=11, vehicle 99.81%, p<0.05): 93.32%

methionine enkephalin
action on contraction of sphincter of Oddi [3]: cause transient contraction of sphincter of Oddi, followed by showing a continuous contraction inhibition action
